Measured values as given in the supplement of paper PMC13380429.

Tests used:
[1] = test system: A549-ACE2 infected with SARS-CoV-2; test: cell count relative to DMSO; higher = less toxic; details: 24 h
[2] = test system: Vero E6; test: relative viability EC50 (midpoint between 100% and the lowest measured viability); higher = less toxic; details: 72 h
[3] = test system: HepG2; test: as above; details: 72 h
[4] = test system: Calu-3; test: as above; details: 72 h
[5] = test system: U2OS; test: as above; details: 72 h
[6] = test system: A549-ACE2 infected with SARS-CoV-2; test: morphology score (similarity to uninfected cells); higher = more like uninfected cells; details: 24 h
[7] = test system: A549-ACE2; test: drug-induced phospholipidosis relative to tamoxifen; higher = more phospholipidosis
[8] = test system: Caco-2; test: cell viability relative to DMSO; higher = less toxic; details: 72 h
[9] = test system: Vero E6; test: as above; details: 72 h
[10] = test system: HepG2; test: as above; details: 72 h
[11] = test system: Calu-3; test: as above; details: 72 h
[12] = test system: U2OS; test: as above; details: 72 h
[13] = test system: A549-ACE2; test: phospholipidosis EC50; higher = less potent phospholipidosis inducer
[14] = test system: Caco-2; test: drug sensitivity score (DSS) for viability; higher = more toxic; extreme values may be limits of the assay; details: 72 h
[15] = test system: Vero E6; test: as above; details: 72 h
[16] = test system: HepG2; test: as above; details: 72 h
[17] = test system: Calu-3; test: as above; details: 72 h
[18] = test system: U2OS; test: as above; details: 72 h
[19] = test system: A549-ACE2 infected with SARS-CoV-2; test: SARS-CoV-2 infection rate relative to DMSO; higher = more infection; details: 24 h
[20] = test system: Caco-2; test: relative viability EC50 (midpoint between 100% and the lowest measured viability); higher = less toxic; details: 72 h

CCN(CC)CCO[C@H]1CC[C@@]2(C)C(=CC[C@@H]3[C@@H]2CC[C@]2(C)C(=O)CC[C@@H]32)C1
Details | SARS-CoV-2 infection rate [%] | cell count [%] | cell viability [%] | morphology score | phospholipidosis EC50 [µM]
[1], 0.1 µM | – | 96 | – | – | –
[1], 0.3 µM | – | 105 | – | – | –
[1], 1 µM | – | 114 | – | – | –
[1], 3 µM | – | 117 | – | – | –
[6], 0.1 µM | – | – | – | -0.31 | –
[6], 0.3 µM | – | – | – | 0.19 | –
[6], 1 µM | – | – | – | 0.41 | –
[6], 3 µM | – | – | – | 0.69 | –
[8], 1 nM | – | – | 92 | – | –
[8], 10 nM | – | – | 92.6 | – | –
[8], 100 nM | – | – | 97.2 | – | –
[8], 1000 nM | – | – | 88.4 | – | –
[8], 10000 nM | – | – | 51.2 | – | –
[9], 1 nM | – | – | 93.9 | – | –
[9], 10 nM | – | – | 104 | – | –
[9], 100 nM | – | – | 89.3 | – | –
[9], 1000 nM | – | – | 92.3 | – | –
[9], 10000 nM | – | – | 24.6 | – | –
[10], 1 nM | – | – | 101 | – | –
[10], 10 nM | – | – | 93.8 | – | –
[10], 100 nM | – | – | 85.3 | – | –
[10], 1000 nM | – | – | 84.5 | – | –
[10], 10000 nM | – | – | 33.5 | – | –
[11], 1 nM | – | – | 98 | – | –
[11], 10 nM | – | – | 103 | – | –
[11], 100 nM | – | – | 107 | – | –
[11], 1000 nM | – | – | 79.4 | – | –
[11], 10000 nM | – | – | 18.5 | – | –
[12], 1 nM | – | – | 99.4 | – | –
[12], 10 nM | – | – | 98.4 | – | –
[12], 100 nM | – | – | 99.7 | – | –
[12], 1000 nM | – | – | 84.9 | – | –
[12], 10000 nM | – | – | 78.6 | – | –
[13], 24 h | – | – | – | – | 0.935
[13], 48 h | – | – | – | – | 1.04
[13], 72 h | – | – | – | – | 2.25
[19], 0.1 µM | 108 | – | – | – | –
[19], 0.3 µM | 93 | – | – | – | –
[19], 1 µM | 81 | – | – | – | –
[19], 3 µM | 29 | – | – | – | –

Details | drug sensitivity score | relative viability EC50
[2] | – | 2.32 µM
[3] | – | 1720 nM
[4] | – | 1540 nM
[5] | – | > 10 µM
[14] | 4.4 | –
[15] | 5.4 | –
[16] | 5.8 | –
[17] | 7.7 | –
[18] | 2.2 | –

drug-induced phospholipidosis [%], [7]
Details | 0.3 µM | 0.833333 µM | 3.33333 µM | 6.66667 µM | 10 µM | 30 µM
24 h | 6.72 | 34.6 | 112 | 114 | 104 | 86.8
48 h | 7.14 | 19.8 | 111 | 116 | 106 | 90
72 h | 6.02 | 13.4 | 95.4 | 125 | 115 | –

CN(C(=O)Cc1ccc(Cl)c(Cl)c1)[C@H](CN1CCCC1)c1ccccc1
Details | SARS-CoV-2 infection rate [%] | cell count [%] | cell viability [%] | morphology score | phospholipidosis EC50 [µM]
[1], 0.3 µM | – | 96 | – | – | –
[1], 3 µM | – | 118 | – | – | –
[1], 10 µM | – | 121 | – | – | –
[1], 30 µM | – | 92 | – | – | –
[6], 0.3 µM | – | – | – | -0.06 | –
[6], 3 µM | – | – | – | 0.89 | –
[6], 10 µM | – | – | – | 0.84 | –
[6], 30 µM | – | – | – | 0.1 | –
[8], 1 nM | – | – | 96.7 | – | –
[8], 10 nM | – | – | 103 | – | –
[8], 100 nM | – | – | 103 | – | –
[8], 1000 nM | – | – | 103 | – | –
[8], 10000 nM | – | – | 76 | – | –
[9], 1 nM | – | – | 104 | – | –
[9], 10 nM | – | – | 101 | – | –
[9], 100 nM | – | – | 107 | – | –
[9], 1000 nM | – | – | 102 | – | –
[9], 10000 nM | – | – | 88.1 | – | –
[10], 1 nM | – | – | 98.1 | – | –
[10], 10 nM | – | – | 105 | – | –
[10], 100 nM | – | – | 106 | – | –
[10], 1000 nM | – | – | 99.4 | – | –
[10], 10000 nM | – | – | 85.3 | – | –
[11], 1 nM | – | – | 96.1 | – | –
[11], 10 nM | – | – | 100 | – | –
[11], 100 nM | – | – | 90.9 | – | –
[11], 1000 nM | – | – | 97.1 | – | –
[11], 10000 nM | – | – | 28.9 | – | –
[12], 1 nM | – | – | 96.9 | – | –
[12], 10 nM | – | – | 99.7 | – | –
[12], 100 nM | – | – | 101 | – | –
[12], 1000 nM | – | – | 106 | – | –
[12], 10000 nM | – | – | 89.9 | – | –
[13], 24 h | – | – | – | – | 3.63
[13], 48 h | – | – | – | – | 5.18
[13], 72 h | – | – | – | – | 8.35
[19], 0.3 µM | 97 | – | – | – | –
[19], 3 µM | 21 | – | – | – | –
[19], 10 µM | 17 | – | – | – | –
[19], 30 µM | 36 | – | – | – | –

Details | drug sensitivity score | relative viability EC50
[2] | – | > 10 µM
[3] | – | > 10000 nM
[4] | – | 2850 nM
[5] | – | > 10 µM
[14] | 0.7 | –
[15] | 0 | –
[16] | 0.3 | –
[17] | 4.3 | –
[18] | 0 | –
[20] | – | > 10 µM

drug-induced phospholipidosis [%], [7]
Details | 0.3 µM | 0.833333 µM | 3.33333 µM | 6.66667 µM | 10 µM | 30 µM
24 h | 0.7 | 4.92 | 51.2 | 90.6 | 95.8 | 112
48 h | 4.43 | 3.22 | 36.7 | 77.7 | 97.8 | –
72 h | 3.91 | 2.85 | 31.5 | 65.6 | 90.5 | –

COc1cc(-n2cnc3cc(-c4ccc(Cl)cc4)sc3c2=O)ccc1OCCN1CCCC1
Details | SARS-CoV-2 infection rate [%] | cell count [%] | cell viability [%] | morphology score | phospholipidosis EC50 [µM]
[1], 0.3 µM | – | 104 | – | – | –
[1], 3 µM | – | 116 | – | – | –
[1], 10 µM | – | 120 | – | – | –
[1], 30 µM | – | 120 | – | – | –
[6], 0.3 µM | – | – | – | 0.28 | –
[6], 3 µM | – | – | – | 0.6 | –
[6], 10 µM | – | – | – | 0.87 | –
[6], 30 µM | – | – | – | 0.67 | –
[8], 1 nM | – | – | 111 | – | –
[8], 10 nM | – | – | 88.4 | – | –
[8], 100 nM | – | – | 104 | – | –
[8], 1000 nM | – | – | 103 | – | –
[8], 10000 nM | – | – | 88.7 | – | –
[9], 1 nM | – | – | 110 | – | –
[9], 10 nM | – | – | 104 | – | –
[9], 100 nM | – | – | 107 | – | –
[9], 1000 nM | – | – | 93.4 | – | –
[9], 10000 nM | – | – | 93.6 | – | –
[10], 1 nM | – | – | 108 | – | –
[10], 10 nM | – | – | 108 | – | –
[10], 100 nM | – | – | 108 | – | –
[10], 1000 nM | – | – | 93.9 | – | –
[10], 10000 nM | – | – | 73.2 | – | –
[11], 1 nM | – | – | 102 | – | –
[11], 10 nM | – | – | 102 | – | –
[11], 100 nM | – | – | 100 | – | –
[11], 1000 nM | – | – | 101 | – | –
[11], 10000 nM | – | – | 89.3 | – | –
[12], 1 nM | – | – | 92.4 | – | –
[12], 10 nM | – | – | 95.9 | – | –
[12], 100 nM | – | – | 95.7 | – | –
[12], 1000 nM | – | – | 102 | – | –
[12], 10000 nM | – | – | 90.6 | – | –
[13], 24 h | – | – | – | – | 12.9
[13], 48 h | – | – | – | – | 16.7
[13], 72 h | – | – | – | – | 21
[19], 0.3 µM | 98 | – | – | – | –
[19], 3 µM | 73 | – | – | – | –
[19], 10 µM | 20 | – | – | – | –
[19], 30 µM | 18 | – | – | – | –

Details | drug sensitivity score | relative viability EC50
[2] | – | > 10 µM
[4] | – | > 10000 nM
[5] | – | > 10 µM
[14] | 0 | –
[15] | 0 | –
[16] | 2 | –
[17] | 0 | –
[18] | 0 | –
[20] | – | > 10 µM

drug-induced phospholipidosis [%], [7]
Details | 0.3 µM | 0.833333 µM | 3.33333 µM | 6.66667 µM | 10 µM | 30 µM
24 h | 0.98 | -0.51 | 19.1 | 56.7 | 87.1 | 172
48 h | 1.08 | -1.67 | 14.3 | 36.9 | 63.3 | 141
72 h | 2.44 | -3.52 | 9.91 | 23.8 | 43.5 | 111
